Assay results as given in patent US20250353873A1, “COMPOUNDS AND METHODS FOR MODULATING APOE EXPRESSION” (Ionis Pharmaceuticals, Inc., priority 2024, published 2025).
Marks after values point to notes of the source that are not given here. Strand notation (5' to 3'): a small letter for the sugar, then the base; units joined by * are phosphorothioate-linked, units joined directly phosphodiester-linked; [ ] holds rarer units or linkages, { } end groups; capitals alone tell only the bases. [ms] = mesyl phosphoramidate linkage; e = 2'-O-(2-methoxyethyl) (MOE); k = constrained ethyl (cEt); [5mC] = 5-methylcytosine; d = 2'-deoxy (DNA)

Key:
human APOE RNA [1] = experiment: Activity in APOE C57BL/6NTac-Apoeem7250 knock-in mice, single ICV bolus, 20 weeks (Example 13); type: in vivo; settings: single ICV bolus 300 μg, 20 weeks post treatment, normalized to mouse Ppia
Description: (§1) Modified oligonucleotides described above were tested in the APOE C57BL/6NTac-Apoeem7250 knock-in mouse model described above.
APOE C57BL/6NTac-Apoeem7250 knock-in mice were divided into groups of 4 mice each. Each mouse received a single ICV bolus of 300 μg of modified oligonucleotide. A group of 2-4 mice received a single ICV bolus with PBS as a negative control.
(§2) Twenty weeks post treatment, mice were sacrificed and RNA was extracted from cortical brain tissue and spinal cord for quantitative real-time RT-PCR analysis of RNA expression of APOE using human primer probe set RTS3073 (described herein above). APOE RNA levels were normalized to mouse Ppia. Mouse Ppia was amplified using primer probe set m_cyclo24 (described herein above). Results are presented as percent human APOE RNA relative to the amount of human APOE RNA in PBS treated animals, (% control). Each experiment is identified in separate tables below.

human APOE RNA [2] = experiment: Dose-dependent inhibition of human APOE RNA in HepG2 cells, electroporation, 50,000 cells per well, RT-PCR normalized to GAPDH (Example 4, Tables 8-10); type: cell-based; settings: HepG2, electroporation, 16-hour treatment
Outline: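 Readout is percent APOE RNA versus untreated controls, measured by RT-PCR (primer probe set RTS3073) and normalized to human GAPDH. Modified oligonucleotides were delivered by electroporation at varying doses into HepG2 cells plated at 50,000 per well.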

human APOE RNA [3] = experiment: Dose-dependent inhibition of human APOE RNA in HepG2 cells, electroporation, 24 hours (Example 6); type: cell-based
Outline: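 IC50 derived from APOE RNA levels, given as percent of untreated control after GAPDH normalization (probe sets RTS3073 and RTS104). Oligonucleotides were delivered at multiple concentrations by electroporation into HepG2 cells seeded at 50,000 per well.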

human APOE RNA [4] = experiment: Activity in APOE C57BL/6NTac-Apoeem7250 knock-in mice, single ICV bolus, 16 weeks (Example 12); type: in vivo; settings: single ICV bolus 300 μg, 16 weeks post treatment, normalized to mouse Ppia
Outline: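 A single 300 μg intracerebroventricular dose was given, with PBS-treated mice as reference; cortical and spinal cord tissue was taken 16 weeks later. RT-qPCR quantified human APOE RNA, Ppia-normalized, expressed relative to PBS animals (% control).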

human APOE RNA [5] = experiment: Activity in APOE C57BL/6NTac-Apoeem7250 knock-in mice, single ICV bolus, 4 weeks (Example 10); type: in vivo; settings: C57BL/6NTac-Apoeem7250 knock-in mice, single ICV bolus 300 μg, 4 weeks (Table 22)
Description: as §1
APOE C57BL/6NTac-Apoeem7250 knock-in mice were divided into groups of 2-4 mice each. Each mouse received a single ICV bolus of 300 μg of modified oligonucleotide. A group of 3-4 mice received a single ICV bolus with PBS as a negative control.
as §2, with “Four” for “Twenty”

| Substance | APOE RNA (% control) Cortex (human APOE RNA [1]) | APOE RNA (% control) Spinal Cord (human APOE RNA [1]) | IC50 (human APOE RNA [3]) | APOE RNA (% UTC) (human APOE RNA [3]; 5 nM) | APOE RNA (% UTC) (human APOE RNA [3]; 13 nM) | APOE RNA (% UTC) (human APOE RNA [3]; 33 nM) | APOE RNA (% UTC) (human APOE RNA [3]; 82 nM) | APOE RNA (% UTC) (human APOE RNA [3]; 205 nM) | APOE RNA (% UTC) (human APOE RNA [3]; 512 nM) | APOE RNA (% UTC) (human APOE RNA [3]; 1,280 nM) | APOE RNA (% UTC) (human APOE RNA [3]; 3,200 nM) | APOE RNA (% UTC) (human APOE RNA [3]; 8,000 nM) | APOE RNA (% UTC) (human APOE RNA [3]; 20,000 nM) | APOE RNA (% control) Cortex (human APOE RNA [4]) | APOE RNA (% control) Spinal Cord (human APOE RNA [4]) | APOE RNA (% control) Cortex (human APOE RNA [5]) | APOE RNA (% control) Spinal Cord (human APOE RNA [5]) | also measured |
| --- | --- | --- | --- | --- | --- | --- | --- | --- | --- | --- | --- | --- | --- | --- | --- | --- | --- | --- |
| 1757584 (eT*eTeGeGeT*dG*dA*dA*dT*d[5mC]*dT*dT*dT*dA*dT*kTkAeA*eA*e[5mC]; antisense) [Compound 1757584] | 92 % control | 95 % control |  |  |  |  |  |  |  |  |  |  |  |  |  |  |  |  |
| 1779701 (e[5mC]*eTeT*kG*kG*dT[ms]dG[ms]dA[ms]dA[ms]dT*d[5mC]*dT*dT*dT*dA[ms]dT*eT*eA*eA*eA; antisense) [Compound 1779701] | 56 % control | 24 % control |  |  |  |  |  |  |  |  |  |  |  |  |  |  |  |  |
| 1757556: mixed MOE/cEt gapmer TTGGTGAATCTTTATTAA, sugar eeeeeddddddddekkee, linkages soossssssssssooss (eT*eTeGeG*eT*dG*dA*dA*dT*d[5mC]*dT*dT*dT*eAkTkT*eA*eA) [compound 1757556] | 99 % control | 82 % control |  |  |  |  |  |  |  |  |  |  |  |  |  |  |  | APOE RNA (% UTC) (human APOE RNA [2]; 5 nM): 92 % UTC; APOE RNA (% UTC) (human APOE RNA [2]; 13 nM): 93 % UTC; APOE RNA (% UTC) (human APOE RNA [2]; 33 nM): 98 % UTC; APOE RNA (% UTC) (human APOE RNA [2]; 82 nM): 103 % UTC; APOE RNA (% UTC) (human APOE RNA [2]; 205 nM): 101 % UTC; APOE RNA (% UTC) (human APOE RNA [2]; 512 nM): 65 % UTC; APOE RNA (% UTC) (human APOE RNA [2]; 1,280 nM): 71 % UTC; APOE RNA (% UTC) (human APOE RNA [2]; 3,200 nM): 60 % UTC; APOE RNA (% UTC) (human APOE RNA [2]; 8,000 nM): 35 % UTC; APOE RNA (% UTC) (human APOE RNA [2]; 20,000 nM): 13 % UTC; IC50 (human APOE RNA [2]): 3530 nM |
| 1757554: mixed MOE/cEt gapmer TTGGTGAATCTTTATTAA, sugar kkeeeddddddddeeeee, linkages soossssssssssooss (kT*kTeGeG*eT*dG*dA*dA*dT*d[5mC]*dT*dT*dT*eAeTeT*eA*eA) [compound 1757554] | 95 % control | 68 % control |  |  |  |  |  |  |  |  |  |  |  |  |  |  |  | APOE RNA (% UTC) (human APOE RNA [2]; 5 nM): 91 % UTC; APOE RNA (% UTC) (human APOE RNA [2]; 13 nM): 113 % UTC; APOE RNA (% UTC) (human APOE RNA [2]; 33 nM): 101 % UTC; APOE RNA (% UTC) (human APOE RNA [2]; 82 nM): 106 % UTC; APOE RNA (% UTC) (human APOE RNA [2]; 205 nM): 89 % UTC; APOE RNA (% UTC) (human APOE RNA [2]; 512 nM): 71 % UTC; APOE RNA (% UTC) (human APOE RNA [2]; 1,280 nM): 52 % UTC; APOE RNA (% UTC) (human APOE RNA [2]; 3,200 nM): 27 % UTC; APOE RNA (% UTC) (human APOE RNA [2]; 8,000 nM): 28 % UTC; APOE RNA (% UTC) (human APOE RNA [2]; 20,000 nM): 13 % UTC; IC50 (human APOE RNA [2]): 1570 nM |
| 1757565 (eA*e[5mC]eTeTkG*dG*dT*dG*dA*dA*dT*d[5mC]*dT*dT*dT*eAeTeT*eA*eA; antisense) [Compound 1757565] | 82‡ % control | 73‡ % control |  |  |  |  |  |  |  |  |  |  |  |  |  |  |  | APOE RNA (% UTC) (human APOE RNA [2]; 5 nM): 95 % UTC; APOE RNA (% UTC) (human APOE RNA [2]; 13 nM): 108 % UTC; APOE RNA (% UTC) (human APOE RNA [2]; 33 nM): 76 % UTC; APOE RNA (% UTC) (human APOE RNA [2]; 82 nM): 84 % UTC; APOE RNA (% UTC) (human APOE RNA [2]; 205 nM): 89 % UTC; APOE RNA (% UTC) (human APOE RNA [2]; 512 nM): 64 % UTC; APOE RNA (% UTC) (human APOE RNA [2]; 1,280 nM): 49 % UTC; APOE RNA (% UTC) (human APOE RNA [2]; 3,200 nM): 30 % UTC; APOE RNA (% UTC) (human APOE RNA [2]; 8,000 nM): 55 % UTC; APOE RNA (% UTC) (human APOE RNA [2]; 20,000 nM): 22 % UTC; IC50 (human APOE RNA [2]): 2130 nM |
| 1757583 (eT*eTeGeGeT*dG*dA*dA*dT*d[5mC]*dT*dT*dT*dA*dT*kTeAeA*eA*e[5mC]; antisense) [Compound 1757583] | 97 % control | 100 % control |  |  |  |  |  |  |  |  |  |  |  |  |  |  |  |  |
| 1779970 (e[5mC]*eTeTkG*kG*eT*dG[ms]dA[ms]dA*dT*d[5mC]*dT*dT*dT*dA*dT*eT*eA*eA*eA; antisense) [Compound 1779970] | 63 % control | 35 % control |  |  |  |  |  |  |  |  |  |  |  |  |  |  |  |  |
| 1736533 (e[5mC]*eT*eT*eG*eGeT*dG[ms]dA[ms]dA[ms]dT*d[5mC]*dT*dT*dT*dA[ms]dT*kT*eA*eA*eA; antisense) [Compound 1736533] |  |  | 390 nM | 83 % UTC | 83 % UTC | 78 % UTC | 74 % UTC | 55 % UTC | 50 % UTC | 38 % UTC | 28 % UTC | 13 % UTC | 5 % UTC | 57 % control | 49 % control | 34 % control | 54 % control |  |
| 1736534 (e[5mC]*eT*eT*eG*eGeT*dG[ms]dA[ms]dA[ms]dT*d[5mC]*dT*dT*dT*dA[ms]dT*kT*kA*eA*eA; antisense) [Compound 1736534] |  |  | 890 nM | 99 % UTC | 110 % UTC | 93 % UTC | 103 % UTC | 65 % UTC | 50 % UTC | 45 % UTC | 24 % UTC | 19 % UTC | 25 % UTC | 46 % control | 34 % control | 31 % control | 55 % control |  |
| 1736532 (e[5mC]*eT*eT*eG*kG*kTdG[ms]dA[ms]dA[ms]dT*d[5mC]*dT*dT*dT*dA[ms]dT*eT*eA*eA*eA; antisense) [Compound 1736532] |  |  | 280 nM | 81 % UTC | 85 % UTC | 74 % UTC | 71 % UTC | 54 % UTC | 41 % UTC | 32 % UTC | 17 % UTC | 23 % UTC | 5 % UTC | 34 % control | 45 % control | 30 % control | 38 % control |  |
| 1736536 (e[5mC]*eT*eT*eG*kGkT*dG[ms]dA[ms]dA[ms]dT*d[5mC]*dT*dT*dT*dA[ms]dT*eT*eA*eA*eA; antisense) [Compound 1736536] |  |  | 620 nM | 97 % UTC | 102 % UTC | 79 % UTC | 79 % UTC | 63 % UTC | 58 % UTC | 43 % UTC | 25 % UTC | 9 % UTC | 6 % UTC | 36 % control | 31 % control | 31 % control | 53 % control |  |
| 1736529 (e[5mC]*eT*eT*eG*eG*eTdG[ms]dA[ms]dA[ms]dT*d[5mC]*dT*dT*dT*dA[ms]dT*kT*kA*eA*eA; antisense) [Compound 1736529] |  |  | 1120 nM | 92 % UTC | 102 % UTC | 92 % UTC | 115 % UTC | 75 % UTC | 56 % UTC | 45 % UTC | 29 % UTC | 13 % UTC | 30 % UTC | 60 % control | 28 % control | 51 % control | 46 % control |  |
